How the values were obtained:
MRC5 = assay: Cytotoxicity against human MRC5 cells after 24 hrs by redox-sensitive dye based fluorescent assay; assay type: cell-based; details: MRC5, 24 h
[1] = Therapeutic index, ratio of average IC50 for human MRC5 and BJ cells to IC50 for antileishmanial activity against Leishmania major; assay type: toxicity; details: MRC5 and BJ cells (average IC50) versus Leishmania major, read-out: TI
[2] = test system: Trypanosoma brucei brucei; assay: Antitrypanosomal activity against bloodstream form of Trypanosoma brucei brucei 90-13 assessed as reduction in parasite growth; assay type: functional, organism-based
Leishmania major = assay: Antileishmanial activity against Leishmania major FV1 assessed as reduction in parasite growth; assay type: functional, organism-based
[3] = test system: Trypanosoma brucei gambiense; assay: Antitrypanosomal activity against bloodstream form of Trypanosoma brucei gambiense Feo assessed as reduction in parasite growth; assay type: functional, organism-based
BJ = assay: Cytotoxicity against human BJ cells after 24 hrs by redox-sensitive dye based fluorescent assay; assay type: cell-based

For C=CCN1C(=O)C(CC(=O)c2ccc(F)cc2)S/C1=N\N=C\c1ccccc1 (stereo not given), the IC50 (MRC5) was 20.1 µM, the selectivity ratio [1] was 0.45 and the IC50 [2] was > 50 µM. The IC50 (Leishmania major) was 47.5 µM, the IC50 [3] was > 50 µM and the IC50 (BJ) was 21.5 µM.
Molecule CCC1S/C(=N\N=C\c2c(-c3ccc(Cl)cc3)[nH]c3ccccc23)NC1=O (stereo not given) has an IC50 (MRC5) of 8.8 µM, a selectivity ratio [1] of 0.36 and an IC50 (Leishmania major) of 22.7 µM. It also gave an IC50 (BJ) of 7.45 µM.
With O=C(CC1S/C(=N\N=C\c2c(-c3ccccc3)[nH]c3ccccc23)NC1=O)c1ccccc1 (stereo not given) the IC50 (MRC5) was > 50 µM, the selectivity ratio [1] was > 5.47 and the IC50 (Leishmania major) was 9.14 µM. For the same molecule, the IC50 (BJ) was > 50 µM.
CCOC(=O)c1sc(N/N=C/c2c(-c3ccc([N+](=O)[O-])cc3)[nH]c3ccccc23)nc1C gave an IC50 (MRC5) of 23.5 µM, a selectivity ratio [1] of 5.09 and an IC50 (Leishmania major) of 7.22 µM. The IC50 (BJ) was 50 µM.
For O=C1CS/C(=N\N=C\c2c(-c3ccc(Cl)cc3)[nH]c3ccccc23)N1, the IC50 (MRC5) was > 50 µM, the selectivity ratio [1] was > 7.13 and the IC50 (Leishmania major) was 7.01 µM. The IC50 (BJ) was > 50 µM.
In the case of CCC1S/C(=N\N=C\c2c(-c3ccc(Br)cc3)[nH]c3ccccc23)NC1=O (stereo not given), the IC50 (MRC5) is reported as 5.91 µM, the selectivity ratio [1] is reported as 0.36 and the IC50 (Leishmania major) is reported as 18.8 µM. For the same molecule, the IC50 (BJ) was 7.45 µM.
Work on O=C1N/C(=N/N=C/c2c(-c3ccc(Br)cc3)[nH]c3ccccc23)SC1CCO (stereo not given) yielded an IC50 (MRC5) of 15.9 µM, a selectivity ratio [1] of 1.75 and an IC50 (Leishmania major) of 12.8 µM. It also gave an IC50 (BJ) of 29.2 µM.
C=CCSc1nn2c(/C=N/N=C3/NC(=O)C(CCOC(C)=O)S3)c(-c3ccccc3)nc2s1 (stereo not given) gave an IC50 (MRC5) of 23.2 µM, a selectivity ratio [1] of 2.96 and an IC50 (Leishmania major) of 9.81 µM. For the same molecule, the IC50 (BJ) was 34.9 µM.
In the case of O=C(CC1S/C(=N\N=C\c2c(-c3ccccc3)[nH]c3ccccc23)NC1=O)c1ccc(F)cc1 (stereo not given), the IC50 (MRC5) is reported as 49.8 µM, the selectivity ratio [1] is reported as > 6.18 and the IC50 (Leishmania major) is reported as 8.09 µM. The IC50 (BJ) was > 50 µM.
CC(=O)OCCC1S/C(=N\N=C\c2c(-c3ccccc3)[nH]c3ccccc23)NC1=O (stereo not given) gave an IC50 (MRC5) of 42.8 µM, a selectivity ratio [1] of 11.3 and an IC50 (Leishmania major) of 3.51 µM. It also gave an IC50 (BJ) of 37.1 µM.
With CC1S/C(=N\N=C\c2c(-c3ccc(Br)cc3)[nH]c3ccccc23)NC1=O (stereo not given) the IC50 (MRC5) was > 50 µM, the selectivity ratio [1] was > 2.7 and the IC50 (Leishmania major) was 18.6 µM. The IC50 (BJ) was > 50 µM.
For C=CCSc1nn2c(C=O)c(-c3ccccc3)nc2s1, the IC50 (MRC5) was 35.4 µM, the selectivity ratio [1] was > 4.78 and the IC50 (Leishmania major) was 8.94 µM. For the same molecule, the IC50 [3] was 2.34 µM and the IC50 (BJ) was > 50 µM.
Molecule O=C1N/C(=N/N=C/c2c(-c3ccc(Cl)cc3)[nH]c3ccccc23)SC1CCO (stereo not given) has an IC50 (MRC5) of 13.2 µM, a selectivity ratio [1] of 1.13 and an IC50 (Leishmania major) of 15.7 µM. The IC50 (BJ) was 22.4 µM.
In the case of CCC1S/C(=N\N=C\c2c(-c3ccc([N+](=O)[O-])cc3)[nH]c3ccccc23)NC1=O (stereo not given), the IC50 (MRC5) is reported as 25.2 µM, the selectivity ratio [1] is reported as 1.87 and the IC50 (Leishmania major) is reported as 14.7 µM. It also gave an IC50 (BJ) of 29.8 µM.
For CCC1S/C(=N\N=C\c2c(-c3ccccc3)[nH]c3ccccc23)NC1=O (stereo not given), the IC50 (MRC5) was > 50 µM, the selectivity ratio [1] was > 44.6 and the IC50 (Leishmania major) was 1.12 µM. The IC50 (BJ) was > 50 µM.
For O=C1CS/C(=N\N=C\c2c(-c3ccccc3)[nH]c3ccccc23)N1, the IC50 (MRC5) was > 50 µM, the selectivity ratio [1] was > 29.1 and the IC50 (Leishmania major) was 1.73 µM. The IC50 (BJ) was > 50 µM.
In the case of CC1S/C(=N\N=C\c2c(-c3ccccc3)[nH]c3ccccc23)NC1=O (stereo not given), the IC50 (MRC5) is reported as > 50 µM, the selectivity ratio [1] is reported as > 48.1 and the IC50 (Leishmania major) is reported as 1.01 µM. For the same molecule, the IC50 (BJ) was > 50 µM.
In the case of CCOC(=O)c1sc(N/N=C/c2c(-c3ccc(Cl)cc3)[nH]c3ccccc23)nc1C, the IC50 (MRC5) is reported as 25.2 µM, the selectivity ratio [1] is reported as > 2.49 and the IC50 (Leishmania major) is reported as 12 µM. The IC50 (BJ) was > 50 µM.
With CCOC(=O)C(Cc1ccccc1)N1C(=O)/C(=C/Nc2ncc(Cc3ccc(Cl)cc3Cl)s2)SC1=S (stereo not given) the IC50 (MRC5) was > 50 µM, the selectivity ratio [1] was > 3.3 and the IC50 [2] was 2.36 µM. The IC50 (Leishmania major) was 15.2 µM, the IC50 [3] was 1.85 µM and the IC50 (BJ) was > 50 µM.
In the case of C[C@@H]1CC[C@@H]2[C@@H](C1)c1sc(=O)n(CC(=O)Nc3ccccc3)c1SC2(C)C, the IC50 (MRC5) is reported as > 50 µM, the selectivity ratio [1] is reported as > 5.76 and the IC50 [2] is reported as 10.2 µM. For the same molecule, the IC50 (Leishmania major) was 8.68 µM and the IC50 (BJ) was > 50 µM.
For O=C(CC1S\C(=N/N=C\C=C\c2ccccc2)N(Cc2ccco2)C1=O)Nc1cccc(C(F)(F)F)c1 (stereo not given), the IC50 (MRC5) was 12 µM, the selectivity ratio [1] was 0.75 and the IC50 [2] was > 50 µM. The IC50 (Leishmania major) was 18.4 µM, the IC50 [3] was > 50 µM and the IC50 (BJ) was 15.6 µM.
With O=C1CS/C(=N/N=C/c2c(-c3ccc(Cl)cc3)[nH]c3ccccc23)N1Cc1ccco1 the IC50 (MRC5) was 10.8 µM, the selectivity ratio [1] was 0.75 and the IC50 (Leishmania major) was 12.6 µM. It also gave an IC50 [3] of 7.31 µM and an IC50 (BJ) of 8.07 µM.
In the case of C[C@@H]1CC[C@@H]2[C@@H](C1)c1sc(=O)n(CC(=O)Nc3ccc(S(N)(=O)=O)cc3)c1SC2(C)C, the IC50 (MRC5) is reported as > 50 µM, the selectivity ratio [1] is reported as > 2.53 and the IC50 [2] is reported as 14.2 µM. For the same molecule, the IC50 (Leishmania major) was 19.8 µM and the IC50 (BJ) was > 50 µM.
For C[C@@H]1CC[C@@H]2[C@@H](C1)c1sc(=O)n(CC(=O)Nc3ccccc3C(F)(F)F)c1SC2(C)C, the IC50 (MRC5) was > 50 µM, the selectivity ratio [1] was > 2.78 and the IC50 [2] was 8.5 µM. The IC50 (Leishmania major) was 18 µM and the IC50 (BJ) was > 50 µM.
With C=CCN1C(=O)C(CC(=O)c2ccc(F)cc2)S/C1=N\N=C1\CC2CCC1(C)C2(C)C (stereo not given) the IC50 (MRC5) was > 50 µM, the selectivity ratio [1] was > 3.28 and the IC50 [2] was > 50 µM. For the same molecule, the IC50 (Leishmania major) was 15.3 µM, the IC50 [3] was > 50 µM and the IC50 (BJ) was > 50 µM.
With C[C@@H]1CC[C@@H]2[C@@H](C1)c1sc(=O)n(CCC#N)c1SC2(C)C the IC50 (MRC5) was > 50 µM, the selectivity ratio [1] was > 3.38 and the IC50 (Leishmania major) was 14.8 µM. The IC50 (BJ) was > 50 µM.
For CCOC(=O)C(Cc1ccccc1)N1C(=O)/C(=C/Nc2nccs2)SC1=S (stereo not given), the IC50 (MRC5) was > 50 µM, the selectivity ratio [1] was > 1.73 and the IC50 [2] was 9.65 µM. The IC50 (Leishmania major) was 28.8 µM, the IC50 [3] was 13.4 µM and the IC50 (BJ) was > 50 µM.
With CCc1nn2c(C=O)c(-c3ccc([N+](=O)[O-])cc3)nc2s1 the IC50 (MRC5) was > 50 µM, the selectivity ratio [1] was > 1.65 and the IC50 (Leishmania major) was 30.4 µM. The IC50 (BJ) was > 50 µM.
For C[C@@H]1CC[C@@H]2[C@@H](C1)c1sc(=O)n(CC(=O)Nc3cccc(C(F)(F)F)c3)c1SC2(C)C, the IC50 (MRC5) was > 50 µM, the selectivity ratio [1] was > 3.47 and the IC50 [2] was 2.97 µM. The IC50 (Leishmania major) was 14.4 µM and the IC50 (BJ) was > 50 µM.
With C[C@@H]1[C@H](O)[C@@H](C)/C=C/C=C/C=C/C=C/C=C/C=C/C=C/[C@H](O[C@@H]2O[C@H](C)[C@@H](O)[C@H](N)[C@@H]2O)C[C@@H]2O[C@](O)(C[C@@H](O)C[C@@H](O)[C@H](O)CC[C@@H](O)C[C@@H](O)CC(=O)O[C@H]1C)C[C@H](O)[C@H]2C(=O)O [AMPHOTERICIN B] the IC50 (MRC5) was > 50 µM, the selectivity ratio [1] was > 100 and the IC50 (Leishmania major) was 0.5 µM. For the same molecule, the IC50 (BJ) was > 50 µM.
For CCCCCCCCCCCCCCCCOP(=O)([O-])OCC[N+](C)(C)C [MILTEFOSINE], the IC50 (MRC5) was > 50 µM, the selectivity ratio [1] was > 6.11 and the IC50 (Leishmania major) was 8.18 µM. The IC50 (BJ) was > 50 µM.

Source: ChEMBL document CHEMBL4665886, “Assessing different thiazolidine and thiazole based compounds as antileishmanial scaffolds” (Bioorg Med Chem Lett, 2020)
